Values joined by “and” are separate entries in the source; they are usually repeats but may differ in a detail not shown here. Identical values can stand only once.
Assay: molar heat capacity at constant volume; xn = mol fraction of the nth substance listed
Conditions: x1 = 0.2607

N [ammonia] + O
Conditions | molar heat capacity at constant volume
601.54 K, Fluid (supercritical or subcritical phases), Mass density=301.94 kg/m3, isochoric heat capacity | 93.57 J/K/mol
601.55 K, Fluid (supercritical or subcritical phases), Mass density=291.16 kg/m3, isochoric heat capacity | 90.62 J/K/mol
601.56 K, Fluid (supercritical or subcritical phases), Mass density=188.05 kg/m3, isochoric heat capacity | 61.55 J/K/mol
601.62 K, Fluid (supercritical or subcritical phases), Mass density=285.71 kg/m3, isochoric heat capacity | 88.9 J/K/mol
601.63 K, Fluid (supercritical or subcritical phases), Mass density=299.79 kg/m3, isochoric heat capacity | 98.44 J/K/mol
601.66 K, Fluid (supercritical or subcritical phases), Mass density=294.44 kg/m3, isochoric heat capacity | 99.98 J/K/mol
601.71 K, Fluid (supercritical or subcritical phases), Mass density=285.71 kg/m3, isochoric heat capacity | 87.96 J/K/mol
601.71 K, Fluid (supercritical or subcritical phases), Mass density=299.79 kg/m3, isochoric heat capacity | 95.13 J/K/mol
601.75 K, Fluid (supercritical or subcritical phases), Mass density=188.05 kg/m3, isochoric heat capacity | 64.8 J/K/mol
601.75 K, Fluid (supercritical or subcritical phases), Mass density=195.99 kg/m3, isochoric heat capacity | 103.89 J/K/mol
601.75 K, Liquid, Isochoric heat capacity | 103.89 J/K/mol
601.79 K, Fluid (supercritical or subcritical phases), Mass density=195.99 kg/m3, isochoric heat capacity | 94.8 J/K/mol
601.82 K, Fluid (supercritical or subcritical phases), Mass density=294.44 kg/m3, isochoric heat capacity | 98.74 J/K/mol
601.88 K, Fluid (supercritical or subcritical phases), Mass density=376.89 kg/m3, isochoric heat capacity | 79.03 J/K/mol
601.89 K, Fluid (supercritical or subcritical phases), Mass density=195.99 kg/m3, isochoric heat capacity | 87.6 J/K/mol
601.97 K, Fluid (supercritical or subcritical phases), Mass density=297.6 kg/m3, isochoric heat capacity | 100.3 J/K/mol
601.97 K, Fluid (supercritical or subcritical phases), Mass density=376.89 kg/m3, isochoric heat capacity | 76.68 J/K/mol
601.98 K, Fluid (supercritical or subcritical phases), Mass density=195.99 kg/m3, isochoric heat capacity | 77.82 J/K/mol
602.05 K, Fluid (supercritical or subcritical phases), Mass density=271.09 kg/m3, isochoric heat capacity | 106.73 J/K/mol
602.05 K, Fluid (supercritical or subcritical phases), Mass density=376.89 kg/m3, isochoric heat capacity | 80.09 J/K/mol
602.05 K, Liquid, Isochoric heat capacity | 106.73 J/K/mol
602.08 K, Fluid (supercritical or subcritical phases), Mass density=271.09 kg/m3, isochoric heat capacity | 104.24 J/K/mol
602.09 K, Fluid (supercritical or subcritical phases), Mass density=271.09 kg/m3, isochoric heat capacity | 100.44 J/K/mol
602.12 K, Fluid (supercritical or subcritical phases), Mass density=271.09 kg/m3, isochoric heat capacity | 96.3 J/K/mol
602.13 K, Fluid (supercritical or subcritical phases), Mass density=307.35 kg/m3, isochoric heat capacity | 96.93 J/K/mol
602.14 K, Fluid (supercritical or subcritical phases), Mass density=312.91 kg/m3, isochoric heat capacity | 83.15 J/K/mol
602.22 K, Fluid (supercritical or subcritical phases), Mass density=312.91 kg/m3, isochoric heat capacity | 82.81 J/K/mol
602.23 K, Fluid (supercritical or subcritical phases), Mass density=307.35 kg/m3, isochoric heat capacity | 92.38 J/K/mol
602.24 K, Fluid (supercritical or subcritical phases), Mass density=271.09 kg/m3, isochoric heat capacity | 93.92 J/K/mol
602.26 K, Fluid (supercritical or subcritical phases), Mass density=205.58 kg/m3, isochoric heat capacity | 105.31 J/K/mol
602.26 K, Liquid, Isochoric heat capacity | 105.31 J/K/mol
602.3 K, Fluid (supercritical or subcritical phases), Mass density=312.91 kg/m3, isochoric heat capacity | 81.1 J/K/mol
602.31 K, Fluid (supercritical or subcritical phases), Mass density=205.58 kg/m3, isochoric heat capacity | 100.51 J/K/mol
602.38 K, Fluid (supercritical or subcritical phases), Mass density=271.09 kg/m3, isochoric heat capacity | 89.02 J/K/mol
602.39 K, Fluid (supercritical or subcritical phases), Mass density=205.58 kg/m3, isochoric heat capacity | 86.66 J/K/mol
602.39 K, Fluid (supercritical or subcritical phases), Mass density=312.91 kg/m3, isochoric heat capacity | 81.72 J/K/mol
602.4 K, Fluid (supercritical or subcritical phases), Mass density=307.35 kg/m3, isochoric heat capacity | 94.4 J/K/mol
602.45 K, Liquid, Isochoric heat capacity | 105.13 J/K/mol
602.48 K, Fluid (supercritical or subcritical phases), Mass density=205.58 kg/m3, isochoric heat capacity | 75.47 J/K/mol
602.48 K, Fluid (supercritical or subcritical phases), Mass density=243.98 kg/m3, isochoric heat capacity | 100.07 J/K/mol
602.48 K, Fluid (supercritical or subcritical phases), Mass density=260.02 kg/m3, isochoric heat capacity | 100.07 J/K/mol
602.48 K, Fluid (supercritical or subcritical phases), Mass density=307.35 kg/m3, isochoric heat capacity | 89.36 J/K/mol
602.48 K, Fluid (supercritical or subcritical phases), Mass density=312.91 kg/m3, isochoric heat capacity | 84.69 J/K/mol
602.48 K, Fluid (supercritical or subcritical phases), Mass density=342.18 kg/m3, isochoric heat capacity | 86.56 J/K/mol
602.48 K, Fluid (supercritical or subcritical phases), Mass density=376.89 kg/m3, isochoric heat capacity | 81.21 J/K/mol
602.48 K, Fluid (supercritical or subcritical phases), Mass density=456.58 kg/m3, isochoric heat capacity | 66.2 J/K/mol
602.51 K, Fluid (supercritical or subcritical phases), Mass density=271.09 kg/m3, isochoric heat capacity | 86.04 J/K/mol
602.56 K, Fluid (supercritical or subcritical phases), Mass density=205.58 kg/m3, isochoric heat capacity | 77.07 J/K/mol
602.56 K, Fluid (supercritical or subcritical phases), Mass density=243.98 kg/m3, isochoric heat capacity | 96.22 J/K/mol
602.56 K, Fluid (supercritical or subcritical phases), Mass density=260.02 kg/m3, isochoric heat capacity | 96.22 J/K/mol
602.56 K, Fluid (supercritical or subcritical phases), Mass density=307.35 kg/m3, isochoric heat capacity | 92.18 J/K/mol
602.56 K, Fluid (supercritical or subcritical phases), Mass density=342.18 kg/m3, isochoric heat capacity | 87.35 J/K/mol
602.62 K, Fluid (supercritical or subcritical phases), Mass density=195.99 kg/m3, isochoric heat capacity | 72.88 J/K/mol
602.65 K, Fluid (supercritical or subcritical phases), Mass density=243.98 kg/m3, isochoric heat capacity | 98.1 J/K/mol
602.65 K, Fluid (supercritical or subcritical phases), Mass density=260.02 kg/m3, isochoric heat capacity | 98.1 J/K/mol
602.65 K, Fluid (supercritical or subcritical phases), Mass density=376.89 kg/m3, isochoric heat capacity | 81.09 J/K/mol
602.65 K, Fluid (supercritical or subcritical phases), Mass density=456.58 kg/m3, isochoric heat capacity | 68.55 J/K/mol
602.74 K, Fluid (supercritical or subcritical phases), Mass density=205.58 kg/m3, isochoric heat capacity | 73.93 J/K/mol
602.74 K, Fluid (supercritical or subcritical phases), Mass density=214.83 kg/m3, isochoric heat capacity | 106.91 J/K/mol
602.74 K, Fluid (supercritical or subcritical phases), Mass density=243.98 kg/m3, isochoric heat capacity | 94.92 J/K/mol
602.74 K, Fluid (supercritical or subcritical phases), Mass density=260.02 kg/m3, isochoric heat capacity | 94.92 J/K/mol
602.74 K, Fluid (supercritical or subcritical phases), Mass density=342.18 kg/m3, isochoric heat capacity | 87.43 J/K/mol
602.74 K, Fluid (supercritical or subcritical phases), Mass density=376.89 kg/m3, isochoric heat capacity | 79.29 J/K/mol
602.74 K, Liquid, Isochoric heat capacity | 106.91 J/K/mol
602.82 K, Fluid (supercritical or subcritical phases), Mass density=214.83 kg/m3, isochoric heat capacity | 102.73 J/K/mol
602.82 K, Fluid (supercritical or subcritical phases), Mass density=456.58 kg/m3, isochoric heat capacity | 67.55 J/K/mol
602.85 K, Fluid (supercritical or subcritical phases), Mass density=218.92 kg/m3, isochoric heat capacity | 108.5 J/K/mol
602.85 K, Liquid, Isochoric heat capacity | 108.5 J/K/mol
602.91 K, Fluid (supercritical or subcritical phases), Mass density=214.83 kg/m3, isochoric heat capacity | 94.28 J/K/mol
602.91 K, Fluid (supercritical or subcritical phases), Mass density=218.92 kg/m3, isochoric heat capacity | 99.09 J/K/mol
602.91 K, Fluid (supercritical or subcritical phases), Mass density=243.98 kg/m3, isochoric heat capacity | 106.2 J/K/mol
602.91 K, Fluid (supercritical or subcritical phases), Mass density=311.19 kg/m3, isochoric heat capacity | 90.5 J/K/mol
602.91 K, Fluid (supercritical or subcritical phases), Mass density=342.18 kg/m3, isochoric heat capacity | 82.9 J/K/mol
602.91 K, Liquid, Isochoric heat capacity | 106.2 J/K/mol
602.96 K, Fluid (supercritical or subcritical phases), Mass density=224.53 kg/m3, isochoric heat capacity | 111.03 J/K/mol
602.96 K, Fluid (supercritical or subcritical phases), Mass density=230.31 kg/m3, isochoric heat capacity | 111.35 J/K/mol
602.96 K, Liquid, Isochoric heat capacity | 111.35 J/K/mol and 111.03 J/K/mol
602.97 K, Fluid (supercritical or subcritical phases), Mass density=227.54 kg/m3, isochoric heat capacity | 112.45 J/K/mol
602.97 K, Liquid, Isochoric heat capacity | 112.45 J/K/mol
602.99 K, Fluid (supercritical or subcritical phases), Mass density=214.83 kg/m3, isochoric heat capacity | 91.33 J/K/mol
602.99 K, Fluid (supercritical or subcritical phases), Mass density=224.53 kg/m3, isochoric heat capacity | 109.57 J/K/mol

Reference: the NIST ThermoML archive (doi:10.1007/s10765-009-0602-6)
